Data set [1] concerns the target Nef from SIV (strain mac239) (Simian immunodeficiency virus, UniProt Q5QGG3). The data set is described as follows: biochemical.
Method: Also shown are SPR data recorded on a Reichert 4-channel SPR instrument. […] Recombinant Nef is immobilized on the biosensor surface, and each compound is injected and association/dissociation kinetics are recorded. The resulting data for the 3 isoforms are each best-fit using both a two-site model and a two-step, induced-fit model. Dissociation constants (KD), calculated from the kinetic association and dissociation constants from all three isoforms, are shown in columns 6-7. Data were fit using three regimes and the resulting KD: from each model are shown in the Table: 1:1 Langmuir fit; 2-site fit, which yields low and high affinity components; and a 2-step induced fit model.
In another data set the test system is HIV-1 NL4-3. The data set can be described thus: HIV-1 replication in normal donor PBMCs (p24 Gag AlphaLISA). The format is cell-based. Conditions: Table 1, 4 days, words (Not active, Borderline) where no bound is given. The gist of the method: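 PHA/IL-2-activated donor PBMCs infected with HIV-1 NL4-3, wild-type or Δ-Nef, with inhibitor (1–1,000 nM, 0.1% DMSO) in IL-2 medium. Lysates taken after 4 days and p24 quantified by AlphaLISA against a p24 standard; IC50 by non-linear regression, CC50 by CellTiter-Blue in uninfected cells.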
In general terms: Alpha assays give light when donor and acceptor beads are brought close together.

For the next data set, the system named is uninfected PBMCs. It is filed as cell-based. Conditions: human. The protocol: FIG. 4. Inhibition of HIV-1 replication by compounds disclosed herein in PBMCs. Donor PBMCs were infected with HIV-1 in the presence of inhibitor concentrations ranging from 1 to 1,000 nM or the DMSO carrier solvent as a negative control (0.1% DMSO final). Replication was assessed by p24 Gag AlphaLISA (Perkin Elmer) […]. Each donor was also infected with Nef-defective HIV-1 to establish the baseline for Nef-dependent enhancement of replication in each culture. Cytotoxicity was assessed in uninfected PBMCs over the same incubation period using the CellTiter-Blue assay (Promega). Data were fit by non-linear regression analysis (GraphPad Prism v.7.04) to determine the IC50 and CC50 values shown.
Non-HLA-typed buffy coats (Source: Pittsburgh Central Blood Bank, #E3755) are received and processed within 24 hours of blood donation. PBMCs are isolated via rocking for RBC separation following 1:1 dilution with PBS, followed by Ficoll gradient centrifugation. The lymphocyte fraction is removed and washed several times for a final concentration of ˜150-300×10^6 cells per donor. Cells are activated for 3 days with 1-5 μg/mL PHA (Sigma) and 50 U/mL IL-2. Cells are plated at 750,000 cells/ml and viability is checked at day 3 using the Cell Titer Blue assay (Promega). If cells are >90% viable, then they are infected with HIV-1 NL4-3, wild-type or Δ-Nef mutant (input typically 30-500 pg/mL p24 capsid equivalents) in the presence or absence of Nef inhibitor analogs. IL-2 is included in the media at the time of infection. After 4 days, cells are lysed with 1% Triton X-100 for 1.5 h, checked for viability via Cell Titer Blue, and frozen/stored at −20° C. HIV-1 replication is assessed with a high-sensitivity HIV-1 p24 AlphaLISA assay (Perkin Elmer) in ½-volume 96-well plates, using one-half of the recommended assay volumes for all reagents (including samples). Assays are read on the BioTek Cytation5 instrument; readout is in AlphaUnits and replication in p24 pg/mL is determined using an HIV-1 p24 capsid protein standard included in the Alpha kit.

For another data set, the target named is HIV-1 NefNL4-3 (Human immunodeficiency virus type 1 group M subtype B, UniProt P03406, A33V/T15A/T51N/V11I). The data set is described as follows: Surface plasmon resonance binding to recombinant full-length Nef (NL4-3). Conditions: for T, minutes (residence time): 2-step induced fit, T = 1/koff2; for RU30/RUNef (extent of binding): response units at 30 μM relative to Nef immobilized on the SPR chip.

Another data set relates to HIV-1NL4-3. The data set is described as follows: HIV-1 infectivity assay in TZM-bl reporter cell line (LTR-luciferase, 48 h). The format is cell-based. To be noted: for inhibition at 1 µM: Human immunodeficiency virus 1, TZM-bl. In a few lines: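 TZM-bl cells (HIV-1 LTR-luciferase) infected with HIV-1NL4-3 with compound at 1 μM; luciferase read 48 h later. Percent inhibition normalized to DMSO wild-type infection (0%) and Nef-defective HIV-1 infection (100% of Nef-dependent effect). Viability in uninfected TZM-bl cells by Cell Titer Blue.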

A further data set deals with T1, HIV-1 Nef SF2 (Human immunodeficiency virus type 1 group M subtype B, UniProt P03407).
T1 construct: made in house
The data set can be described thus: biochemical. It is filed as binding. Conditions: two-step induced-fit model, Reichert SPR, read-out: Reichert SPR Nef SF2 (M) two-step fitting.

A further data set has as its system TZM-bl cell line. It is filed as cell-based. Conditions: human, 1 μM. The gist of the method:
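Nef-dependent infectivity in TZM-bl cells: HIV-1NL4-3 infection with 1 μM compound, luciferase read at 48 h, normalized against DMSO wild-type and Nef-defective controls. Compound cytotoxicity in uninfected cells measured by Cell Titer Blue.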

The mark [2] stands for this setting: KD, M, Table 4, SPR fit 2-step induced fit, KD = koff/kon × koff2/(koff2 + kon2).
Setting [3] is: Nef NL4-3 Binding, SPR 2-state fitting KD, Table 1, 2-step induced-fit model.
[4] abbreviates: Reichert SPR Nef NL43 (M) two-step fitting, KD, two-step induced-fit model, Reichert SPR, Table 3.
Setting [5] is: 1.0 μM, TZM-bl reporter cell line, Table 4, read-out: % Infectivity Inhibition.
[6] abbreviates: 1 μM, TZM-bl, normalized: DMSO wild-type HIV-1 = 0%, Nef-defective HIV-1 = 100%, read-out: HIV-1 Infectivity % Inhibition norm. to Δ-Nef @ 1 μM.
Where [7] appears, read: read-out: Nef NL4-3 Binding, SPR 1:1 or 2-site fitting KD2, Table 1, 2-site fit, second component.

Values joined by “and” are separate entries in the source; they are usually repeats but may differ in a detail not shown here. Equal values may be shown once. Read-outs that look alike come from different tables or passages of the source. Bounds are passed on as bounds.

By inhibition is commonly meant the drop in the measured response relative to a control, in per cent. Take `CC(C)(C)OC(=O)N1CCC(CCc2c(-c3ccc(S(C)(=O)=O)cc3)nn(-c3nc4ccccc4[nH]3)c2O)CC1` [Compound I-201, tert-butyl 4-{2-[1-(1H-1,3-benzodiazol-2-yl)-5-hydroxy-3-(4-methanesulfonylphenyl)-1H-pyrazol-4-yl]ethyl}piperidine-1-carboxylate]: the Kd in data set [1] was 23.8 nM; on HIV-1 NefNL4-3 (setting [2]), 3.94e-07 M; on HIV-1 NefNL4-3 (setting [3]) it was 3.94e-07 M and 1.93e-06 M; at HIV-1 NefNL4-3 (setting [4]), 3.94e-07 M; at HIV-1 Nef SF2, 5.01e-07 M. Also, the “HIV Replication PBMC IC50 vs. HIV NL4-3” value with HIV-1 NL4-3 was “Not active”. For the same molecule, in the data set on uninfected PBMCs, the “Toxicity in HIV Replication PBMC (Toxic @ concentration)” value (“Toxicity in HIV Replication PBMC” below) is recorded as “Toxic @ 1 μM”. For the same molecule, on HIV-1 NefNL4-3 (Table 4), the “T, minutes (residence time)” value came out at 2.62E + 01 minutes. The “RU30/RUNef (extent of binding)” value on HIV-1 NefNL4-3 is reported as 1.83E- 02. The inhibition at 1 µM with HIV-1NL4-3 (setting [5]) and with HIV-1NL4-3 (setting [6]) was 53.4% throughout. Moreover, in the data set with TZM-bl cell line, the “% Cell Viability” value stood at 70.5%. Also, in the data set with TZM-bl cell line, the “Toxicity % Viability @ 1 μM (TZM-bl)” value is reported as 70.5%.

For the molecule `CC(C)COC(=O)N1CCC(c2nn(-c3nc4ccccc4[nH]3)c(O)c2CCc2ccc(F)cc2)CC1` [Compound I-721, 2-methylpropyl 4-[1-(1H-1,3-benzodiazol-2-yl)-4-[2-(4-fluorophenyl)ethyl]-5-hydroxy-1H-pyrazol-3-yl]piperidine-1-carboxylate], the Kd in data set [1] is 82.6 nM; at HIV-1 NefNL4-3, 2.24e-07 M; on HIV-1 NefNL4-3 (setting [2]) it was 3.72e-05 M; at HIV-1 NefNL4-3 (setting [3]), 3.72e-05 M; on HIV-1 NefNL4-3 (setting [4]), 3.72e-05 M; on HIV-1 NefNL4-3 (setting [7]) it was 1.76e-06 M. For the same molecule, the Kd at HIV-1 Nef SF2 was 5.88e-06 M. Also, in the data set with HIV-1 NL4-3, the “HIV Replication PBMC IC50 vs. HIV NL4-3” value is recorded as “Borderline”. Moreover, the “Toxicity in HIV Replication PBMC” value in the data set on uninfected PBMCs was “Toxic @ 10 nM”. On HIV-1 NefNL4-3 (Table 4), the “T, minutes (residence time)” value was found to be 4.69E + 02 minutes. For the same molecule, the “RU30/RUNef (extent of binding)” value at HIV-1 NefNL4-3 came to 1.20E- 02. Also, the inhibition at 1 µM was 100% in the data set with HIV-1NL4-3 (setting [5]); 120% with HIV-1NL4-3 (setting [6]); 120% in the data set on HIV-1NL4-3 (48 h, Table 1, TZM-bl cells, 1 μM, 48 h, 100% = Nef-defective HIV-1, read-out: HIV-1 Infectivity % Inhibition Norm. to Δ-Nef @ 1 μM). For the same molecule, in the data set on TZM-bl cell line, the “% Cell Viability” value is listed as 84.3%. Moreover, in the data set with TZM-bl cell line, the “Percent Viability @ 1 μM (TZM-bl cells)” value amounted to 84.3%.

By IC50 is commonly meant the concentration needed to halve the response being measured. As for `Oc1c(CCc2ccncc2)c(-c2ccc(C(F)(F)F)cc2)nn1-c1nc2ccccc2[nH]1` [Compound I-101, 1-(1H-1,3-benzodiazol-2-yl)-4-[2-(pyridin-4-yl)ethyl]-3-[4-(trifluoromethyl)phenyl]-1H-pyrazol-5-ol], the Kd in data set [1] is 25.4 nM; at HIV-1 NefNL4-3, 1.77e-06 M; on HIV-1 NefNL4-3 (setting [2]), 2.91e-10 M; on HIV-1 NefNL4-3 (setting [3]), 2.91e-10 M; at HIV-1 NefNL4-3 (setting [4]) it was 2.91e-10 M; on HIV-1 NefNL4-3 (setting [7]), 1.47e-05 M. The Kd at HIV-1 Nef SF2 came out at 1.43e-10 M. In the data set with HIV-1 NL4-3 (Human immunodeficiency virus 1, NL43, PBMC, 96 h), this molecule showed an IC50 not above 1 nM. In addition, the “Toxicity in HIV Replication PBMC” value in the data set with uninfected PBMCs is recorded as “Toxic @ 1 μM”. In addition, the “Nef NL4-3 Binding, SPR 1:1 or 2-site fitting KD1” value on HIV-1 NefNL4-3 (Table 1, 1:1 Langmuir fit where the KD2 cell says '1 to 1 fitting', else 2-site fit) is “No Interaction”. Moreover, the “T, minutes (residence time)” value on HIV-1 NefNL4-3 (Table 4) is given as 7.00E + 04 minutes. On HIV-1 NefNL4-3, the “RU30/RUNef (extent of binding)” value stood at 1.33E- 02. Besides, the results for the inhibition at 1 µM in the data set with HIV-1NL4-3 (setting [5]) and in the data set on HIV-1NL4-3 (setting [6]) were 100% and 128%, respectively. For the same molecule, the “HIV-1 Infectivity % Inhibition Norm. to Δ-Nef @ 1 μM” value in the data set with HIV-1NL4-3 (Table 1, TZM-bl cells, 1 μM, 48 h, 100% = Nef-defective HIV-1) worked out at 78.5%. In addition, the “% Cell Viability” value in the data set with TZM-bl cell line is 76.3%. The “Toxicity % Viability @ 1 μM (TZM-bl)” value with TZM-bl cell line amounted to 76.3%.

The values above are taken from US20220380341A1, “INHIBITORS OF HIV-1 NEF FOR THE TREATMENT OF HIV DISEASE” (priority 2018, published 2022).
